Results taken from article PMC4963854, “Mapping Protein–Protein Interactions of the Resistance-Related Bacterial Zeta Toxin–Epsilon Antitoxin Complex (ε2ζ2) with High Affinity Peptide Ligands Using Fluorescence Polarization” (Toxins, 2016).
Where two headings read alike, the source gives them in different places. Ends that are not written are not given here. Peptide text beside a SMILES is read from it. * marks the point of attachment. 5FAM = O=C1OC2(c3ccc(O)cc3Oc3cc(O)ccc32)c2ccc(C(=O)*)cc21

Key:
[1] = biological target: T1, Epsilon protein (His6-Epsilon) (Streptococcus pyogenes, UniProt Q57231); assay: Competitive FP binding assay: acetylated peptides displace fluorescein-labeled peptide from Epsilon; details: unlabeled peptide 0.01-100 µM, 10 mM HEPES pH 7.5, 0.1% Tween-20, 384-well, duplicates in three independent experiments ± SD
T1 construct: His6 (N); made in house; host or cells: E. coli BL21 (DE3)
T1 sequence (Q57231 1-90): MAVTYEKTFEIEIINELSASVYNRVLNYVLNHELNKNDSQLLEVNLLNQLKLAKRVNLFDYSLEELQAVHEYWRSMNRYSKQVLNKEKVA
Source text: The fluorescent high-affinity peptide ligands could be the basis for an especially economic and reliable high-throughput assay, if the fluorescence polarization read-out can be used for the screening of potential ligands that are able to bind to Epsilon in a competitive binding assay. For this purpose, we utilized the unlabeled peptides Ac-Ia and Ac-IIb containing the same amino acid sequence as the initial peptides but with their N-terminus modified by the introduction of an acetyl group. The competitive binding assays were performed by using appropriate amounts of Epsilon protein based on the binding affinity, expressed in terms of the KD value, for the labeled peptides Fluo-Ia and Fluo-IIb. In both cases, the protein concentration was set to the KD value and 5-fold the KD value to study the influence of the protein concentration on the IC50-value of every acetylated peptide. Thus, the Epsilon protein (100 nM or 500 nM final concentration) was treated with Fluo-Ia or Fluo-IIb (10 nM final concentration). After incubation, each mixture was treated with different concentrations of the unlabeled peptides Ac-Ia and Ac-IIb, ranging from 0.01 to 100 µM. […] The ability to identify active compounds (hits) from a particular high-throughput screening (HTS) assay depends largely on the suitability or quality of the assay conditions used in the screening. […]
Figure 5 Competitive binding of the fluorescein-labeled peptides Fluo-Ia and Fluo-IIb to the Epsilon protein in 384-well plates. […] Fluorescence polarization was measured on a SAFIRE II (Tecan, Crailsheim, Germany) microplate reader, using an excitation wavelength of 470 nm and emission wavelength of 525 nm. […]
For the competitive binding assays, unlabeled peptides containing the same amino acid sequence as the previous one but with the N-terminal end modified by the introduction of acetyl group were used. […] The measurements were performed on a SAFIRE II microplate reader (Tecan), using an excitation wavelength of 470 nm and emission wavelength of 525 nm. […]

[2] = biological target: T1, Epsilon protein (His6-Epsilon); assay: Fluorescence polarization (FP) direct binding assay of fluorescein-labeled peptides to Epsilon
Description: Binding affinities of the fluorescein-labeled peptides Fluo-(I–III) with Epsilon protein were determined in a fluorescence polarization (FP) assay. For the purpose, 10 nM solutions of each fluorescein-labeled peptide containing different concentrations of Epsilon (from 5 nM to 7.5 µM) were irradiated with polarized light at the excitation wavelength of 470 nm and the polarization of the emitted light was recorded in mP at […] (see Section 4).
Figure 3 Dose-response curve for the binding of Fluo-(I–II) to the Epsilon protein. The fluorescent-labeled peptides Fluo-(I–II) at a concentration of 10 nM were treated with increasing concentrations of Epsilon (from 0.05 nM to 2.5 µM) in 10 mM HEPES assay buffer, pH 7.5, with 0.1% Tween-20. Values are plotted as the means ± standard deviation (n = 3) from three independent experiments.
For fluorescence polarization measurements, peptides were dissolved in DMSO at 10 mM and diluted in 10 mM HEPES (pH 7.5) containing 0.1% Tween-20. The assay was conducted on untreated black 384-well microtiter plates (low volume, non-binding surface, round bottom, non-sterile black polystyrene, Corning B.V. Life Sciences, Nr. 3676, Kennebunk, ME, USA) in a final volume of 10 µL, using 10 mM HEPES (pH 7.5) with 0.1% Tween-20 as a buffer. The final DMSO proportion in the assay was less than 0.1%. The measurements were performed on a SAFIRE II (Tecan) microplate reader, using an excitation wavelength of 470 nm and emission wavelength of 525 nm. The final assay mixtures contained 5 µL fluorescein-labeled peptide (furnishing a final assay concentration of 10 nM), and 5 µL of increasing amounts of Epsilon protein (final concentrations ranging from 0.05 nM to 5 µM). The negative controls comprised 5 µL fluorescein-labeled peptide (maintaining a final assay concentration of 10 nM) and 5 µL 10 mM HEPES buffer (pH 7.5) containing 0.1% Tween-20. To avoid protein aggregation, Tween-20 (0.1% final concentration) was used as a detergent in all experiments. After adding the fluorescent peptide, the plates were centrifuged (2000 min^−1, 3 min) and shaken briefly (2000 rpm for 10 min at room temperature), and polarization of the emitted fluorescence was directly recorded. In every case, the well containing only the fluorescein-labeled peptide was subtracted from the assay well as background. The polarization values (mP) were plotted as a function of the logarithm of the protein concentration. […] All of the experiments were carried out in duplicate in three independent experiments, and the results are expressed as the mean ± standard deviation (SD).

[3] = 10 nM fluorescein-labeled peptide titrated with Epsilon, 10 mM HEPES pH 7.5, 0.1% Tween-20, no NaCl, ex 470 nm/em 525 nm, EC50 taken as KD (Q close to 1), three independent experiments, n = 3 ± SD, SD, read-out: Binding constant KD

Molecule	Kd [2, 3] [nM]	other results
Ac-GDTSLRSAEFEETQ [Ac-IIb]	–	IC50 ([1]; 500 nM Epsilon, 10 nM Fluo-IIb, read-out: IC50, competition with Fluo-IIb, 500 nM Epsilon): 15300 ± 2500 nM
CC[C@H](C)[C@H](NC(=O)[C@H](CC(C)C)NC(=O)[C@H](CCC(=O)O)NC(=O)[C@H](CCC(=O)O)NC(=O)[C@H](Cc1c[nH]cn1)NC(=O)[C@H](CC(N)=O)NC(=O)[C@H](CC(C)C)NC(=O)[C@H](CC(N)=O)NC(=O)[C@H](CC(=O)O)NC(=O)c1ccc2c(c1)C(=O)OC21c2ccc(O)cc2Oc2cc(O)ccc21)C(=O)N[C@@H](CCC(N)=O)C(=O)O [Fluo-Ie] (5FAM-DNLNHEELIQ-OH; C-terminus assumed)	175 ± 8.9	ΔmP (dynamic range of polarization) ([2]; 10 nM fluorescein-labeled peptide titrated with Epsilon, 10 mM HEPES pH 7.5, 0.1% Tween-20): 115
CC(C)C[C@H](NC(=O)[C@H](CO)NC(=O)[C@@H](NC(=O)[C@H](CC(=O)O)NC(=O)CNC(=O)[C@H](CO)NC(=O)CNC(=O)c1ccc2c(c1)C(=O)OC21c2ccc(O)cc2Oc2cc(O)ccc21)[C@@H](C)O)C(=O)N[C@@H](CCCNC(=N)N)C(=O)N[C@@H](CO)C(=O)N[C@@H](C)C(=O)N[C@@H](CCC(=O)O)C(=O)N[C@@H](Cc1ccccc1)C(=O)N[C@@H](CCC(=O)O)C(=O)N[C@@H](CCC(=O)O)C(=O)N[C@H](C(=O)N[C@@H](CCC(N)=O)C(=O)O)[C@@H](C)O [Fluo-IIc] (5FAM-GSGDTSLRSAEFEETQ-OH)	134 ± 15	–
Ac-LNDNHEELIQ [Ac-Ia]	–	IC50 ([1]; 100 nM Epsilon, 10 nM Fluo-Ia, read-out: IC50, competition with Fluo-Ia, 100 nM Epsilon): 18600 ± 4640 nM; IC50 ([1]; 500 nM Epsilon, 10 nM Fluo-Ia, read-out: IC50, competition with Fluo-Ia, 500 nM Epsilon): 51800 ± 7400 nM
CC(C)C[C@H](NC(=O)[C@H](CO)NC(=O)[C@@H](NC(=O)[C@H](CC(=O)O)NC(=O)CNC(=O)c1ccc2c(c1)C(=O)OC21c2ccc(O)cc2Oc2cc(O)ccc21)[C@@H](C)O)C(=O)N[C@@H](CCCNC(=N)N)C(=O)N[C@@H](CO)C(=O)N[C@@H](C)C(=O)N[C@@H](CCC(=O)O)C(=O)N[C@@H](Cc1ccccc1)C(=O)N[C@@H](CCC(=O)O)C(=O)N[C@@H](CCC(=O)O)C(=O)N[C@H](C(=O)N[C@@H](CCC(N)=O)C(=O)O)[C@@H](C)O [Fluo-IIb] (5FAM-GDTSLRSAEFEETQ-OH)	99.5 ± 12.2	–
CC(C)C[C@H](NC(=O)c1ccc2c(c1)C(=O)OC21c2ccc(O)cc2Oc2cc(O)ccc21)C(=O)N[C@@H](CCCNC(=N)N)C(=O)N[C@@H](CO)C(=O)N[C@@H](C)C(=O)N[C@@H](CCC(=O)O)C(=O)N[C@@H](Cc1ccccc1)C(=O)N[C@@H](CCC(=O)O)C(=O)N[C@@H](CCC(=O)O)C(=O)N[C@H](C(=O)N[C@@H](CCC(N)=O)C(=O)O)[C@@H](C)O [Fluo-IIa] (5FAM-LRSAEFEETQ-OH)	169 ± 16	–
CC[C@H](C)[C@H](NC(=O)[C@H](CC(C)C)NC(=O)[C@H](CCC(=O)O)NC(=O)[C@H](CCC(=O)O)NC(=O)[C@H](Cc1c[nH]cn1)NC(=O)[C@H](CC(N)=O)NC(=O)[C@H](CC(=O)O)NC(=O)[C@H](CC(N)=O)NC(=O)[C@H](CC(C)C)NC(=O)[C@H](CCCNC(=N)N)NC(=O)[C@H](CC(N)=O)NC(=O)[C@H](CCC(=O)O)NC(=O)[C@H](Cc1ccccc1)NC(=O)c1ccc2c(c1)C(=O)OC21c2ccc(O)cc2Oc2cc(O)ccc21)C(=O)N[C@@H](CCC(N)=O)C(=O)O [Fluo-Ib] (5FAM-FENRLNDNHEELIQ-OH)	89.5 ± 13.9	–
CC[C@H](C)[C@H](NC(=O)[C@H](CC(C)C)NC(=O)[C@H](CCC(=O)O)NC(=O)[C@H](CCC(=O)O)NC(=O)[C@H](Cc1c[nH]cn1)NC(=O)[C@H](CC(N)=O)NC(=O)[C@H](CC(=O)O)NC(=O)[C@H](CC(N)=O)NC(=O)[C@H](CC(C)C)NC(=O)c1ccc2c(c1)C(=O)OC21c2ccc(O)cc2Oc2cc(O)ccc21)C(=O)N[C@@H](CCC(N)=O)C(=O)O [Fluo-Ia] (5FAM-LNDNHEELIQ-OH)	74.5 ± 10.5	Kd ([2]; 10 nM Fluo-Ia, 10 mM HEPES pH 7.5, 0.1% Tween-20, plus 10 mM NaCl, read-out: Binding constant in presence of 10 mM NaCl): 105 nM
